Measured values: patent US7732467B2, “Method for reducing amyloid deposition, amyloid neurotoxicity and microgliosis” (Alzheimer's Institute of America, Inc., priority 2003, dated 2010)

How the values were obtained:
[1] = test system: N9 murine microglial cells; assay: LPS-induced microglial activation in vitro, TNF-α production by ELISA; assay type: cell-based, mouse
Method: Microglial activation is determined by TNF-α production (pg/ml) measured by ELISA;
N9 murine micoglial cells are well characterized scavenger murine microglial clones derived from embryonic mouse brain. The extent of microglial activation was determined by TNF-α production (pg/ml) measured by ELISA.

[2] = test system: plasma Aβ in TgPS/APPsw mice; assay: Plasma Aβ levels in TgPS/APPsw mice, human Aβ1-40 ELISA; assay type: in vivo, mouse; conditions: 1.5 mg/kg I.P. every day for three and one half weeks; 2 year old TgPS/APPsw mice
Method: Following this treatment, 100 μl of blood were collected from the tail vein of the animals using EDTA (4%) as an anticoagulant. Blood samples were centrifuged at 4000 g for 1 min and the plasma was collected and diluted four times before being assayed for human Aβ1-40 using a commercially available human Aβ1-40 ELISA (Biosource, CA).

[3] = test system: human glioblastoma cells transfected with APPsw; assay: APP processing, Aβ1-40 production in culture medium by ELISA; assay type: cell-based
Method: Production of Aβ1-40 in the culture medium was measured by ELISA.

[4] = test system: human neuronal progenitor cells (HNPC); assay: Aβ neurotoxicity, LDH release from cells treated with pre-aggregated Aβ1-40; assay type: cell-based; conditions: 100 nM nilvadipine along with 30 μM AgAβ, three days
Method: Neurotoxicity is assessed by measuring the amount of lactic dehydrogenase (LDH) released from cells;
HNPC cells differentiate into neurons readily upon treatment with cyclic AMP. Cyclic AMP (1 mM) (Sigma) was added to the culture medium and the HNPC cells were incubated at 37° C. for 48 hours or more under serum free conditions. […] Neurotoxicity was assessed by measuring the amount of lactic dehydrogenase (LDH; an intracellular enzyme found in all cells) released from the cells.

COC(=O)C1=C(C#N)NC(C)=C(C(=O)OC(C)C)C1c1cccc([N+](=O)[O-])c1 (stereo not drawn) [nilvadipine, isopropyl-3-methyl-2-cyano-1,4-dihydro-6-methyl-4-(m-nitrophenyl)-3,5-pyridine-dicarboxylate]
TNF-α production ([1]; 50 nM nilvadipine, no LPS, N9 cells): about 40 pg/ml | TNF-α production ([1]; 1 μg/ml LPS plus 50 nM nilvadipine, 24 hours, N9 cells (LPS alone about 820 pg/ml)): about 670 pg/ml | TNF-α production ([1]; LPS plus 500 nM nilvadipine, 24 hours, N9 cells (LPS alone about 820 pg/ml)): about 610 pg/ml | increase in plasma levels of Aβ compared to control animals [2]: 42% | reduction of Aβ1-40 production ([3]; 50 nM, 24 hours): about 9% | reduction of Aβ1-40 production ([3]; 50 nM, 48 hours): about 18% | reduction of Aβ1-40 production ([3]; 250 nM, 24 hours): about 15% | reduction of Aβ1-40 production ([3]; 250 nM, 48 hours): about 5% | decrease in LDH release [4]: about 44%
